The target in data set [1] is T1, α-tocopherol-transfer protein (ATTP) (Homo sapiens, UniProt P49638).
T1 construct: His (N); made in house; host or cells: E. coli
T1 sequence (P49638 1-278): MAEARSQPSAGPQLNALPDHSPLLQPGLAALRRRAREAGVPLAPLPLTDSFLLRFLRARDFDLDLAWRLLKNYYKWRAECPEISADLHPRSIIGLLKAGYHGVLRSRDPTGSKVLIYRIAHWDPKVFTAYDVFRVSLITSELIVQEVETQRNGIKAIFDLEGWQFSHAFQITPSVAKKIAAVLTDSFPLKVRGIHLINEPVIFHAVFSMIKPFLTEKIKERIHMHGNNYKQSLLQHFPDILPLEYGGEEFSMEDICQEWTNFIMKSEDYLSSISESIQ
Put plainly: Recombinant protein binding to derivatised beads: inhibition by free phosphoinositides (FIG. 11). The following applies: all lipids at one concentration, relative affinity. The text has this: (§1) FIG. 11. Protein binding to derivatised beads: inhibition by free phosphoinositides. Recombinant proteins (in Cos cell lysates or expressed and purified) were bound to PtdIns(3,4,5)P3 or PtdIns(3,4)P2 beads in the presence of various free phosphoinositides (for details, see Methods). For PIP3-E, a full length construct was expressed in Cos cells while a truncated version (residues 40-437) was purified from E.Coli. […] Unless otherwise indicated, the first lane was loaded with a sample equivalent to 1% (Cos cell lysates) or 10% (purified recombinant proteins) of the protein sample that was incubated with beads. As appropriate, tagged proteins were detected with antibodies (anti-myc, anti-GFP, anti-HIS, or anti-EE; see Methods) or by silver-staining (PIP3-G/H-EE, EE-myosin 1F, GST-cytohesin-4, DAPP1, PIP3-E, MEG-2 and CDC42-GAP). For each protein, the data shown are representative of information collected in 4 independent experiments. […]
(§2) Samples of the supernatants were diluted up to 4-fold in lysis buffer, depending on expression levels, and mixed with indicated concentrations of phosphoinositide in 1 ml (FIG. 11) for 10 min on ice. […] Proteins were eluted with SDS sample buffer, separated by SDS-PAGE and detected by immunoblotting [anti-myc (monoclonal 9E10) or anti-GFP (rabbit polyclonal): Clontech). […]

A short description of data set [2]: Solubility of ω-amino phosphatidic acid in solvents. Format: physicochemical. The settings on record: in a range of solvents; chloroform-methanol-water needed. The method, then:
The immobilised PA [1] was prepared by coupling of the ω-amino phosphatidic acid (−), which was synthesised in 7 steps starting from the optically pure protected glycerol derivative (−), with the N-hydroxysuccinimide (NHS) activated ester agarose resin, Affi-Gel 10, as is depicted in Scheme 1. […] Excess resin (ca. 5 equiv. of NHS-groups) was used, resulting in a loading of 80% [2] onto the beads, as determined by the quantification of recovered by 1H-NMR in the presence of an internal standard.
Finally, the PA amine 33 and PtdIns(4,5)P2 amine 34 were coupled to the N-hydroxysuccinimide (NHS)-activated ester resin, Affi-Gel 10, to afford the corresponding affinity matrices 31 and 32. The PtdIns(4,5)P2 modified matrix was prepared in water using excess NaHCO3, by reacting the activated Affi Gel 10 [resin […] (4 mL)] with the amine 34 ([…]) to give a loading of 4.5 mmol as judged from the recovery of the amino phospholipid 34, that was quantified by 500 MHz ^1H-NMR spectroscopy in the presence of myo-inositol orthoformate 43 as the internal standard.

In the next data set the target is T2, SR3 (Homo sapiens, UniProt Q9HBF4).
T2 construct: Multiple overlapping clones allowed prediction of full-length human ORFs for each protein; EE (N); made in house; host or cells: Sf9 (baculovirus)
T2 sequence (Q9HBF4 1-777): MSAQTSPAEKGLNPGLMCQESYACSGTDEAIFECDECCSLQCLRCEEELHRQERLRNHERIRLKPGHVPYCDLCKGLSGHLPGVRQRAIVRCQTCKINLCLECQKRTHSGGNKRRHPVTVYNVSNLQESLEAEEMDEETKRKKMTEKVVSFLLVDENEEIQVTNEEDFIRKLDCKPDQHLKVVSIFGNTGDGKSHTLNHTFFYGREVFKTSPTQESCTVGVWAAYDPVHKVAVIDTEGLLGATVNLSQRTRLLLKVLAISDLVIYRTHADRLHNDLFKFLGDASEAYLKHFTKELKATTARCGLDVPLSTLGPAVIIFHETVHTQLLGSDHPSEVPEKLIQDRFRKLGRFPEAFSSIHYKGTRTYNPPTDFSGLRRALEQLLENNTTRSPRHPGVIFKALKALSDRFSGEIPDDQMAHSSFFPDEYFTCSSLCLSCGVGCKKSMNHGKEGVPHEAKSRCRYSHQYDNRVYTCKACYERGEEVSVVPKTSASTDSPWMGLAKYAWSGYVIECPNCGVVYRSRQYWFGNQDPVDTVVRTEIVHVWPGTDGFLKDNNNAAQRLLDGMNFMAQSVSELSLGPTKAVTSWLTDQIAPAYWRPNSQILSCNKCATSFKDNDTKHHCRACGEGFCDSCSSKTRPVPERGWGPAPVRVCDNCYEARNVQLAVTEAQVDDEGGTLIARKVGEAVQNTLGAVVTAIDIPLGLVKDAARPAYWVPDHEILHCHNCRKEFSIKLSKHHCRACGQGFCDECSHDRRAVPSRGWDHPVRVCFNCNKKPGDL
Put plainly: Recombinant protein binding to derivatised beads: inhibition by free phosphoinositides (FIG. 11). The following applies: all lipids at one concentration, relative affinity.
Excerpt: as §1, §2

A further data set concerns the target T3, SR1 (Homo sapiens, UniProt Q8IWB7).
T3 construct: Multiple overlapping clones allowed prediction of full-length human ORFs for each protein; EE (N); made in house; host or cells: Sf9 (baculovirus)
T3 sequence (Q8IWB7 1-410): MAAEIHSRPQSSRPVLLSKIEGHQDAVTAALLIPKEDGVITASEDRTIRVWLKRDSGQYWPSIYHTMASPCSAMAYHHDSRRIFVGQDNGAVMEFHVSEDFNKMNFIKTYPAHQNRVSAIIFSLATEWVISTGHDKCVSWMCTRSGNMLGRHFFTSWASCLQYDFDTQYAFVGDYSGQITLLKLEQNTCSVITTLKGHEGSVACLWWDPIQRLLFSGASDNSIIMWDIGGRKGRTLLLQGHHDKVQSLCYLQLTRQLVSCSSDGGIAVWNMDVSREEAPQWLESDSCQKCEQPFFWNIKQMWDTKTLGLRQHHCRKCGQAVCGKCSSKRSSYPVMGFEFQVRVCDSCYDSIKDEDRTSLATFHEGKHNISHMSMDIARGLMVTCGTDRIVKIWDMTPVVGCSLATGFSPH
Described as above. The following applies: all lipids at one concentration, relative affinity.
Excerpt: as §1, §2

Regarding `CCCCCCCCCCCCCCCC(=O)OC[C@H](COP(=O)(O)OC1[C@H](O)[C@H](O)C(OP(=O)(O)O)[C@H](O)[C@H]1O)OC(=O)CCCCCCCCCCCCCCC` (some centres unmarked) [PtdIns4P], the “displacement of ATTP from PtdIns(3,4)P2 beads by free phosphoinositide” value in data set [1] is on record as “displaced most effectively”.
Regarding `CCCCCCCCCCCCCCCC(=O)OC[C@H](COP(=O)(O)O[C@H]1[C@H](O)[C@@H](OP(=O)(O)O)[C@H](O)[C@@H](O)[C@H]1O)OC(=O)CCCCCCCCCCCCCCC` [PtdIns5P], in data set [1], the “displacement of ATTP from PtdIns(3,4)P2 beads by free phosphoinositide” value is “displaced most effectively”.
For the molecule `CCCCCCCCCCCCCCCC(=O)O[C@H](COC(=O)CCCCCCCCCCCN)COP(=O)(O)O` [[2], 1-O-(12-Amino)dodecanoyl-2-O-hexadecanoyl-sn-glycer-3-ylphosphate], in data set [2], the solubility entry was “poor solubility”.
For `CCCCCCCCCCCCCCCC(=O)OC[C@H](COP(=O)(O)O[C@@H]1[C@H](O)[C@H](OP(=O)(O)O)[C@@H](O)[C@H](O)[C@H]1O)OC(=O)CCCCCCCCCCCCCCC` [PtdIns3P], the “displacement of SR3 from PtdIns(3,4)P2 beads by free phosphoinositide” value on SR3 is “most effectively”. Besides, at SR1, the “displacement of SR1 from PtdIns(3,4)P2 beads by free phosphoinositide” value is reported as “most effectively”.

Values taken from patent US7820803B2, “Immobilized phosphatidic acid probe” (priority 2000, dated 2010).
